Test system: miR-21
Experiment: High throughput primary miR-21 FLuc reporter assay (concentration-response)
Assay type: cell-based, human
Settings: HeLa Luc-miR-21 reporter, 48-hour incubation
Description: Primary miR-21 Assay. The primary miR-21 FLuc reporter assay is carried out with HeLa cells expressing the Luc-miR-21 reporter using a 48-hour incubation time. Active compounds that increase the luciferase response are identified based upon inhibition of miR-21.
SAR. The concentration-response data for the entire high throughput screen is plotted and modeled by a four parameter logistic fit and SAR analysis is performed according to conventional approaches (Iglese, et al. (2006) Proc. Natl. Acad. Sci. USA […]:11473-8). In brief, Class 1.1 and 1.2 are full curves containing upper and lower asymptotes with efficacy ≧80% and <80%, respectively. Class 2.1 and 2.2 are incomplete curves having only one asymptote with efficacy ≧80% and <80%, respectively. Class 3 curves show activity at only the highest concentration or are poorly fit. […] For SAR analysis, compounds associated with Class 1 and 2.1 curves are clustered using LEADSCOPE® fingerprints. […] Compounds sharing a common scaffold form a series. Candidate series and singletons are chosen for follow up studies. For each lead or series, an appropriate library design method (e.g., point substitution library or matrix library) is selected. Typically, precursors are synthesized and a library of 15-25 compounds is produced for analysis in the above-described assays.

SMILES | Efficacy
COc1ccc2cc(OCC(=O)NNC(=O)Nc3ccc(C(C)=O)cc3)ccc2c1 [Compound 183, COC1═C/C═C2/C═C(OCC(═O)NNC(═O)NC3═C/C═C(\C═C\3)C(C)═O)\C═C/C\2═C\1] | −65.21
CC(=NNC(=O)c1ccoc1C)c1cccc2ccccc12 [Compound 209, CC(═NNC(═O)C1═C(C)/O/C═C\1)C2═C/C═C\C3═C\C═C/C═C\2\3] | −65.67

Same assay, conditions: HeLa Luc-miR-21 reporter, 48-hour incubation, four parameter logistic fit

SMILES | Curve Class
COc1ccc2cc(OCC(=O)NNC(=O)Nc3ccc(C(C)=O)cc3)ccc2c1 [Compound 183, COC1═C/C═C2/C═C(OCC(═O)NNC(═O)NC3═C/C═C(\C═C\3)C(C)═O)\C═C/C\2═C\1] | −2.2
CC(=NNC(=O)c1ccoc1C)c1cccc2ccccc12 [Compound 209, CC(═NNC(═O)C1═C(C)/O/C═C\1)C2═C/C═C\C3═C\C═C/C═C\2\3] | −2.2

Same assay, conditions: HeLa Luc-miR-21 reporter, 48-hour incubation; read-out: AC50

SMILES | AC50
COc1ccc2cc(OCC(=O)NNC(=O)Nc3ccc(C(C)=O)cc3)ccc2c1 [Compound 183, COC1═C/C═C2/C═C(OCC(═O)NNC(═O)NC3═C/C═C(\C═C\3)C(C)═O)\C═C/C\2═C\1] | 16.5 µM
CC(=NNC(=O)c1ccoc1C)c1cccc2ccccc12 [Compound 209, CC(═NNC(═O)C1═C(C)/O/C═C\1)C2═C/C═C\C3═C\C═C/C═C\2\3] | 7.36 µM

Same assay, conditions: Homo sapiens

SMILES | AC50
CC(=O)COc1ccc2c3c(c(=O)oc2c1C)CCCCC3 [Compound 261] | 3.29 µM
COc1ccc(-c2c/c(=N\CC(=O)O)c3ccccc3o2)cc1.[O-][Cl+3]([O-])([O-])O [Compound 263] | 3.69 µM

Same assay, conditions: Homo sapiens, HeLa, 48 h, HeLa Luc-miR-21 reporter, 48-hour incubation; read-out: AC50

SMILES | AC50
NC(=O)COC(=O)c1ccc2noc(-c3ccccc3)c2c1 [Compound 182] | 6.56 µM
COc1ccc(OCC(=O)Nc2cc(-c3nc4ccccc4s3)ccc2C)cc1 [Compound 184] | 4.65 µM
C/C(=N\NC(=O)c1ccncc1)c1ccc(NC(=O)c2ccc(Cl)cc2)cc1 [Compound 185] | 1.47 µM
O=C(NN=C1CCCC1)c1cccs1 [Compound 186] | 1.65 µM
COc1ccc(NC(=O)C/C(C)=N/NC(=O)c2ccccn2)c(OC)c1 [Compound 187] | 1.85 µM
COc1ccccc1NC(=O)C/C(C)=N/NC(=O)c1ccccn1 [Compound 188] | 1.85 µM
CC(=O)Nc1ccccc1NC(=O)C/C(C)=N/NC(=O)c1ccccn1 [Compound 189] | 1.85 µM
COc1ccc(NC(=O)C/C(C)=N/NC(=O)c2cccs2)c([N+](=O)[O-])c1 [Compound 190] | 1.85 µM
C/C(=N\N1C(=O)c2ccccc2NC1c1ccccc1)c1ccccc1O (stereo not drawn) [Compound 192] | 2.61 µM
O=C(Cc1cccs1)N/N=C/C(Cl)=C/c1ccccc1 [Compound 193] | 2.93 µM
COc1cc(NC(=O)C/C(C)=N/NC(=O)c2ccccn2)c(OC)cc1Cl [Compound 194] | 3.69 µM
C/C(CC(=O)Nc1cc(C)cc(C)c1)=N\NC(=O)c1ccccn1 [Compound 195] | 4.65 µM
C/C(=N\NC(=O)c1ccco1)c1ccc(C(=O)O)s1 [Compound 196] | 4.65 µM
C/C(=N\NC(=O)c1ccccc1)c1ccc(NC(=O)C(F)(F)F)cc1 [Compound 197] | 4.65 µM
Nc1ccccc1C(=O)N/N=C1\CCC\C1=C(\O)C(F)(F)F [Compound 198] | 5.21 µM
O=C(N/N=C1\CC2C=CCC12)c1ccco1 (stereo not drawn) [Compound 199] | 5.21 µM
C/C(CC(=O)NC(C)(C)C)=N\NC(=O)c1ccccc1N [Compound 200] | 5.21 µM
CC1C2CC(C/C2=N\NC(=O)c2cccs2)C1(C)C (stereo not drawn) [Compound 201] | 5.21 µM
Cc1ccc(N/C(S)=N/NC(=O)c2nn(C)c(C)c2Cl)cc1 [Compound 203] | 5.85 µM

SMILES | AC50
O=C(Cc1cccs1)N/N=C/C=C/c1ccccc1[N+](=O)[O-] [Compound 204] | 6.56 µM
C/C(CC(=O)NC(C)(C)C)=N\NC(=O)c1ccco1 [Compound 205] | 6.56 µM
CC(C)N1CCC(=NNC(=O)c2cccs2)CC1 [Compound 206] | 6.56 µM
Cc1ccc(C)c(N/C(S)=N/NC(=O)c2csc(C)c2C)c1 [Compound 207] | 6.56 µM
COc1ccc(N/C(S)=N/NC(=O)c2cccs2)cc1 [Compound 208] | 7.36 µM
Cc1occc1C(=O)N/N=C(\S)Nc1ccccc1C(F)(F)F [Compound 211] | 8.26 µM
COc1ccc(C2=NN(C(C)=O)C(c3cccs3)C2)cc1OC (stereo not drawn) [Compound 212] | 8.26 µM
C/C(CC(=O)NCc1ccccc1Cl)=N\NC(=O)c1ccccn1 [Compound 213] | 8.26 µM
CCCCC12CN3CCN(CC(C3)/C1=N/NC(=O)c1ccccc1N)C2 [Compound 214] | 9.27 µM
C/C(=N\NC(=O)c1ccc(Br)o1)c1ccc(C)o1 [Compound 216] | 10.4 µM
CC1=NN(C(=O)c2ccoc2C)C(O)(C(F)(F)F)C1 (stereo not drawn) [Compound 217] | 10.4 µM
C/C(=N\NC(=O)c1ccoc1C)c1ccc(Br)s1 [Compound 219] | 11.7 µM
O=C(N/N=C/c1cccc([N+](=O)[O-])c1)c1nc(O)c2ccccc2n1 [Compound 220] | 11.7 µM
O=C(N/N=C1\CC2C=CCC12)c1cccs1 (stereo not drawn) [Compound 221] | 11.7 µM
C/C(CCc1ccccc1)=N\NC(=O)c1ccccc1 [Compound 222] | 13.1 µM
Cc1ccsc1/C=N/NC(=O)c1ccc(-n2cccc2)cc1 [Compound 223] | 13.1 µM
O=C(N/N=C/c1ccc2cccnc2c1)c1nc(O)c2ccccc2n1 [Compound 224] | 13.1 µM
C/C(CCc1ccc2c(c1)OCO2)=N\NC(=O)c1ccccc1 [Compound 225] | 13.1 µM
O=C(O)c1ccccc1C(=O)N1N=C(c2ccccc2)CC1c1ccccc1O (stereo not drawn) [Compound 226] | 14.7 µM

SMILES | AC50
CC(=O)N1N=C(c2ccc(C)cc2)OC1c1cccnc1 (stereo not drawn) [Compound 228] | 16.5 µM
C/C(=N\NC(=O)c1ccco1)c1ccc(NC(=O)C(F)(F)F)cc1 [Compound 229] | 16.5 µM
CCCCCCC1/C(=N\NC(=O)c2ccccc2)CCC1C(=O)OC (stereo not drawn) [Compound 230] | 16.5 µM
CC1=NN(C(=O)c2ccc(C)o2)C(O)(c2ccccc2)C1 (stereo not drawn) [Compound 231] | 16.5 µM
C/C(=N\NC(=O)c1nn(C)cc1Br)c1ccc(NC(=O)c2ccncc2)cc1 [Compound 234] | 18.5 µM
O=C(N/N=C/c1ccc(OC(=O)c2cccs2)cc1)c1cccc(F)c1 [Compound 235] | 18.5 µM
C/C(Cn1cnc([N+](=O)[O-])n1)=N\NC(=O)c1ccccc1 [Compound 236] | 20.8 µM
COc1ccc(NC(=O)C/C(C)=N/NC(=O)c2ccco2)c([N+](=O)[O-])c1 [Compound 237] | 20.8 µM
Cc1oc(/C=N/NS(=O)(=O)c2ccccc2)cc1Br [Compound 238] | 13.1 µM
Cc1ccccc1OCCn1cnc2c(N)ncnc21 [Compound 239] | 9.27 µM
Cc1ccc(OCCn2cnc3c(N)ncnc32)cc1 [Compound 240] | 16.5 µM
COc1cc(-c2nc3cnccn3c2Nc2ccc(C(C)C)cc2)ccc1O [Compound 241] | 3.29 µM
Cc1ccc(-c2nc3ncccn3c2Nc2ccc3c(c2)OCCO3)o1 [Compound 242] | 16.5 µM
Cc1ccc(-c2nc3cnccn3c2Nc2ccccc2)o1 [Compound 243] | 16.5 µM
Cc1ccc(Nc2c(-c3ccc(C)o3)nc3cnccn23)cc1 [Compound 244] | 16.5 µM
Clc1ccc(-n2ncc3c(NCc4ccccn4)ncnc32)cc1 [Compound 245] | 5.85 µM
CCCNc1ncnc2c1cnn2-c1ccc(OC)cc1 [Compound 246] | 0.29 µM
COc1ccc(-n2ncc3c(NCCCn4ccnc4)ncnc32)cc1 [Compound 247] | 10.4 µM
CCCNc1nc(C)nc2c1cnn2CCc1ccccc1 [Compound 248] | 14.7 µM

Same assay, conditions: Homo sapiens, Table 12 singletons; read-out: AC50

SMILES | AC50
O=C(CCS(=O)(=O)c1ccccc1)Nc1ccc(-c2nc3ccccc3s2)cc1 [Compound 249] | 0.26 µM
Cc1c(-c2nc(-c3ccc(C(F)(F)F)cc3)no2)n(C)oc1=O [Compound 250] | 0.29 µM
CCC(C)NC(=O)CCCn1c(=O)c2cccn2c2ccccc21 (stereo not drawn) [Compound 251] | 0.93 µM
Cn1c(=O)[nH]c2cc(-c3noc(-c4ccc(F)cc4)n3)ccc21 [Compound 252] | 1.31 µM
CC(C)(C)NS(=O)(=O)c1cccc(S(=O)(=O)c2cccc(S(=O)(=O)NC(C)(C)C)c2)c1 [Compound 253] | 1.65 µM
CC(=O)N1CCN(c2nc3c(F)cc(F)cc3s2)CC1 [Compound 254] | 1.85 µM
COc1ccc(NCc2cccn2-c2nnc(N3CCC(C)CC3)s2)c(OC)c1 [Compound 255] | 1.85 µM
COc1ccc(-c2nc3c(Br)c(N)c(Br)cc3o2)cc1 [Compound 256] | 2.07 µM
c1ccc(-c2onc3cc4c(cc23)OCCO4)cc1 [Compound 257] | 2.07 µM
Cc1ccc(-c2nc3ccccc3o2)cc1NC(=S)NC(=O)c1cc2ccccc2o1 [Compound 258] | 2.93 µM
COc1ccc(-c2csc(NC(=O)COC(=O)c3ccc(Br)o3)n2)cc1 [Compound 259] | 2.93 µM
O=S(=O)(c1ccc(F)cc1)n1ccc(-c2cnc(-c3ccccc3)s2)n1 [Compound 260] | 2.93 µM
Nc1c(-c2ccccc2)n[nH]c1-c1ccccc1 [Compound 262] | 3.29 µM
Cc1ccc2[nH]c3c(S)ncnc3c2c1 [Compound 264] | 3.69 µM
c1ccc(C2=Nn3c(nnc3-c3cc(-c4ccccc4)[nH]n3)SC2)cc1 [Compound 265] | 3.69 µM
Nc1c(Cl)cc2c(c1Oc1ccccc1)C(=O)c1ccccc1C2=O [Compound 266] | 4.14 µM
O=C1C(Nc2ccccc2)=C2CCCC=C2N1c1ccccc1 [Compound 267] | 4.14 µM
Fc1cccc(/C=N/N=C(\S)Nc2ccccc2Cl)c1 [Compound 268] | 4.65 µM
O=S(=O)(c1cccc2nsnc12)N1CCc2ccccc21 [Compound 269] | 4.65 µM
COCCC/N=C(\S)N/N=C/c1ccc(N(C)C)cc1Cl [Compound 270] | 5.85 µM
O=C(Nc1ccccc1)c1cc2n(n1)C(C(F)(F)F)CC(C1CC1)N2 (stereo not drawn) [Compound 272] | 6.56 µM
COC(=O)c1ccc(Cn2nnc3sc4c(c3c2=O)CCCC4)cc1 [Compound 273] | 6.56 µM
